According to patent US20260347310A1, “PHENALKYLAMINES AND METHODS OF MAKING AND USING THE SAME” (GILGAMESH PHARMACEUTICALS, INC., priority 2022, published 2026):
Like-named read-outs stand apart in the source and are kept apart here.

Assay: Pharmacokinetics in plasma of rats after oral and intravenous dosing; oral bioavailability
Assay type: in vivo, Sprague Dawley rats
Experimental: The pharmacokinetics of disclosed compounds were determined in the plasma of rats after oral and intravenous dosing, with the results presented in Table 13.
Animals. Male Sprague Dawley rats were used in these studies. Animals were randomly assigned to treatment groups and were fasted overnight before oral dosing.
Drugs. The test compound was dissolved in 10% captisol (1) or 10% DMSO and 90% normal saline (2a) and administered intravenously (iv) at 2 mg/kg (1) or 1 mg/kg (2a) or orally (po) at 10 mg/kg (1) or 1 mg/kg (2a), calculated based on freebase, and at a volume of 10 mL/kg body weight for oral administration and 5 mL/kg for IV administration. The compounds were tested as the racemates.
Sample Collection and Bioanalysis. Blood samples were collected through the external jugular vein (via cannulation) at 0.083, 0.25, 0.5, 1, 2, 4, 8, and 24 h post-dose (total 8 time points/rat, 4 rats per administration route). At each time point, ~0.2 mL of blood was withdrawn and transferred into a pre-labeled 0.5-mL micro centrifuge tube containing 4 μL of 200 mM K2EDTA solution as anticoagulant and mixed gently by inverting the tube to facilitate mixing of anticoagulant with the blood. Blood samples were kept on ice until centrifugation. The collected blood samples were centrifuged at 4,000 rpm for 10 min at 4° C. Plasma samples were separated after centrifugation, transferred into pre-labeled tubes, and stored at −70° C. until bioanalysis. For bioanalysis, a 200-μL aliquot of internal standard prepared in acetonitrile (cetirizine, 50 ng/mL) was added (except for blank, where 200 μL of acetonitrile was added) to a 96-well Solvinert filter plate followed by 5 μL of a study plasma sample or spiked calibration standard. The filter plate was then centrifuged for 5 minutes at a speed of 2,500 rpm at 4° C. with a 96-well sample collection plate. Following centrifugation, collected samples were analyzed using a fit-for-purpose LC-MS/MS method, with authentic samples of the analyte used for calibration and identification.
Data Analysis. Pharmacokinetic parameters were estimated using the non-compartmental analysis tool of Phoenix® WinNonlin software (Ver 8.1). The drug concentrations of samples below the lower limit of quantitation (LLOQ) were designated as zero.

CCC(N)Cc1cc(OC)c(CCCCCC(F)(F)F)cc1OC (racemic) [Compound 2a, 1-(2,5-dimethoxy-4-(6,6,6-trifluorohexyl)phenyl)butan-2-amine]
C0 (rat plasma, IV 1 mg/kg, racemate, 10% DMSO and 90% normal saline): 75.9 ng/mL
AUC(0-t) (rat plasma, IV 1 mg/kg, racemate, 10% DMSO and 90% normal saline, read-out: AUC0-last (iv)): 90 ng·h/mL
half-life (rat plasma, IV 1 mg/kg, racemate, 10% DMSO and 90% normal saline, read-out: t1/2 (iv) (converted)): 2.71 h
bioavailability (rat plasma, IV and PO 1 mg/kg, racemate, 10% DMSO and 90% normal saline, read-out: F (absolute oral bioavailability)): 28%
Cmax (rat plasma, PO 1 mg/kg, racemate, 10% DMSO and 90% normal saline, fasted): 29.7 ng/mL
AUC(0-t) (rat plasma, PO 1 mg/kg, racemate, 10% DMSO and 90% normal saline, fasted, read-out: AUC0-last (po)): 25 ng·h/mL
half-life (rat plasma, PO 1 mg/kg, racemate, 10% DMSO and 90% normal saline, fasted, read-out: t1/2 (po) (converted)): 3.07 h
absolute oral bioavailability (F) (in words) (rats, 2a 1 mg/kg iv and 1 mg/kg po, 1 2 mg/kg iv and 10 mg/kg po, racemates): improved absolute oral bioavailability (F), compared to 1
